Tests used:
[1] = system: normal NK cells expanded with K562-aAPC; assay: percent inhibition of viability; higher = more inhibition; conditions: 72 h, IL-2 2.5 ng/mL
Procedure: (§1)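 Drug sensitivity and resistance testing on K562-aAPC-expanded normal NK cells: 5 concentrations (10-fold steps over a 10,000-fold range), 72 h at 37 °C, viability by CellTiter-Glo normalised to DMSO and benzethonium chloride controls; DSS from the fitted curve.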

IMC-1 (IL-2 20 ng/mL) [2] = assay: as above; conditions: 72 h
[3] = system: normal primary NK cells, pool 2 (3 donors) (IL-2 2.5 ng/mL); assay: as above; conditions: 72 h
[4] = system: normal primary NK cells, pool 3 (3 donors) (IL-2 2.5 ng/mL); assay: as above; conditions: 72 h
[5] = system: normal NK cells expanded with K562-aAPC; assay: drug sensitivity score (DSS) (DSS units); higher = more sensitive; extreme values may be limits of the assay; conditions: 72 h; IL-2 2.5 ng/mL
Procedure: as §1

IMC-1 (IL-2 20 ng/mL) [6] = assay: as above; conditions: 72 h
[7] = system: normal primary NK cells, pool 2 (3 donors) (IL-2 2.5 ng/mL); assay: as above; conditions: 72 h
[8] = system: normal primary NK cells, pool 3 (3 donors) (IL-2 2.5 ng/mL); assay: as above; conditions: 72 h

Row | SMILES | percent inhibition of viability ([1]; 1 nM) [%] | percent inhibition of viability ([1]; 10 nM) [%] | percent inhibition of viability ([1]; 100 nM) [%] | percent inhibition of viability ([1]; 1000 nM) [%] | percent inhibition of viability ([1]; 10000 nM) [%] | percent inhibition of viability (IMC-1 (IL-2 20 ng/mL) [2]; 1 nM) [%] | percent inhibition of viability (IMC-1 (IL-2 20 ng/mL) [2]; 10 nM) [%] | percent inhibition of viability (IMC-1 (IL-2 20 ng/mL) [2]; 100 nM) [%] | percent inhibition of viability (IMC-1 (IL-2 20 ng/mL) [2]; 1000 nM) [%] | percent inhibition of viability (IMC-1 (IL-2 20 ng/mL) [2]; 10000 nM) [%] | percent inhibition of viability ([3]; 1 nM) [%] | percent inhibition of viability ([3]; 10 nM) [%] | percent inhibition of viability ([3]; 100 nM) [%] | percent inhibition of viability ([3]; 1000 nM) [%] | percent inhibition of viability ([3]; 10000 nM) [%] | percent inhibition of viability ([4]; 1 nM) [%] | percent inhibition of viability ([4]; 10 nM) [%] | percent inhibition of viability ([4]; 100 nM) [%] | percent inhibition of viability ([4]; 1000 nM) [%] | percent inhibition of viability ([4]; 10000 nM) [%] | drug sensitivity score [5] | drug sensitivity score (IMC-1 (IL-2 20 ng/mL) [6]) | drug sensitivity score [7] | drug sensitivity score [8] | percent inhibition of viability ([1]; 100000 nM) [%] | percent inhibition of viability (IMC-1 (IL-2 20 ng/mL) [2]; 100000 nM) [%] | percent inhibition of viability ([3]; 100000 nM) [%] | percent inhibition of viability ([4]; 100000 nM) [%] | percent inhibition of viability ([1]; 0.1 nM) [%] | percent inhibition of viability (IMC-1 (IL-2 20 ng/mL) [2]; 0.1 nM) [%] | percent inhibition of viability ([3]; 0.1 nM) [%] | percent inhibition of viability ([4]; 0.1 nM) [%]
1 | CC(C)NC[C@@H](C(=O)N1CCN(c2ncnc3c2[C@H](C)C[C@H]3O)CC1)c1ccc(Cl)cc1 [Ipatasertib] (max concentration tested 10000 nM) | 4.44 | 5.94 | 6.06 | 17.9 | 39.6 | 0.54 | 2.26 | 1.36 | 0.96 | 9.26 | -8.24 | -4.37 | 0.07 | 8.84 | 36 | 5.55 | 1.78 | 8.02 | 9.98 | 29.5 | 3.79 | 0 | 3.09 | 2.08 |  |  |  |  |  |  |  | 
2 | CN(C)C(=N)NC(=N)N [Metformin] (max concentration tested 100000 nM) |  | -6.08 | -6.07 | -1.23 | 6.39 |  | -3.89 | -0.13 | -3.1 | -1.36 |  | -3.45 | 0.32 | 10.6 | 8.75 |  | -3.35 | 0.87 | 5.02 | 0.46 | 0 | 0 | 1.13 | 0 | 2.64 | 5.51 | 12.4 | 8.34 |  |  |  | 
3 | CC(C)N(C[C@H]1O[C@@H](n2cnc3c(N)ncnc32)[C@H](O)[C@@H]1O)[C@H]1C[C@@H](CCc2nc3cc(C(C)(C)C)ccc3[nH]2)C1 [Pinometostat] (max concentration tested 1000 nM) | -1.47 | -2.36 | 3.36 | 12.5 |  | -4.07 | -2.87 | -4.72 | 3.86 |  | 6.92 | 6.49 | -0.47 | 0.82 |  | 13 | 2.22 | 1.46 | -1.92 |  | 0.26 | 0 | 0 | 0 |  |  |  |  | -0.7 | -9.34 | -6.45 | -1.26
